Assay results from ChEMBL document CHEMBL1201862, “PubChem BioAssay data set” (2004).
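Exposure lasted 48 hours, with cells grown in 96-well plates and compounds tested at five concentrations. Abbreviation: GI50, concentration required for 50% inhibition of growth.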 Calls of active or inactive are those of the source. Cut-off read from the data, not from the text of the source: active = GI50 up to about 1.1 µM and inactive = higher.

How the values were obtained:
Test in all cases: NCI-60 cell line screen, 48 h
M14 = tested on: M14
HOP-62 = tested on: HOP-62
SNB-75 = tested on: SNB-75
OVCAR-5 = tested on: OVCAR-5
MDA-MB-435 = tested on: MDA-MB-435
SF-295 = tested on: SF-295
MOLT-4 = tested on: MOLT-4
SK-MEL-2 = tested on: SK-MEL-2
A498 = tested on: A498
MCF7 = tested on: MCF7
NCI/ADR-RES = tested on: NCI/ADR-RES
OVCAR-3 = tested on: OVCAR-3
LOX IMVI = tested on: LOX IMVI
SF-268 = tested on: SF-268
T47D = tested on: T47D
HCT-116 = tested on: HCT-116
RPMI-8226 = tested on: RPMI-8226
RXF 393 = tested on: RXF 393
MDA-N = tested on: MDA-N
SK-MEL-28 = tested on: SK-MEL-28
CCRF-CEM = tested on: CCRF-CEM
Hs-578T = tested on: Hs-578T
UACC-62 = tested on: UACC-62
CAKI-1 = tested on: CAKI-1
SK-OV-3 = tested on: SK-OV-3
DU-145 = tested on: DU-145
OVCAR-4 = tested on: OVCAR-4
786-0 = tested on: 786-0
HT-29 = tested on: HT-29
SNB-19 = tested on: SNB-19
KM12 = tested on: KM12
NCI-H226 = tested on: NCI-H226
BT-549 = tested on: BT-549
MDA-MB-231 = tested on: MDA-MB-231
Malme-3M = tested on: Malme-3M
UO-31 = tested on: UO-31
U-251 = tested on: U-251
EKVX = tested on: EKVX
HOP-92 = tested on: HOP-92
HCC 2998 = tested on: HCC 2998
NCI-H23 = tested on: NCI-H23
ACHN = tested on: ACHN
PC-3 = tested on: PC-3
SW-620 = tested on: SW-620
A549 = tested on: A549
SN12C = tested on: SN12C
NCI-H460 = tested on: NCI-H460
SK-MEL-5 = tested on: SK-MEL-5
K562 = tested on: K562
IGROV-1 = tested on: IGROV-1
HCT-15 = tested on: HCT-15
NCI-H522 = tested on: NCI-H522
TK-10 = tested on: TK-10
OVCAR-8 = tested on: OVCAR-8
SF-539 = tested on: SF-539
UACC-257 = tested on: UACC-257
COLO 205 = tested on: COLO 205
HL-60 = tested on: HL-60
SR = tested on: SR

For C[C@]12CC/C(=N\OCCN3CCCCC3)C=C1CCC1C2CC[C@@]2(C)C1CC[C@]2(C)O (stereo not given in full), the GI50 (M14) was 14.2 µM (inactive), the GI50 (HOP-62) was 15.2 µM (inactive) and the GI50 (SNB-75) was 7.35 µM (inactive). The GI50 (OVCAR-5) was 19.6 µM (inactive), the GI50 (MDA-MB-435) was 2.3 µM (inactive) and the GI50 (SF-295) was 3.5 µM (inactive). The GI50 (MOLT-4) was 2.64 µM (inactive), the GI50 (SK-MEL-2) was 13.1 µM (inactive) and the GI50 (A498) was 3.14 µM (inactive). The GI50 (MCF7) was 4.75 µM (inactive), the GI50 (NCI/ADR-RES) was 5.27 µM (inactive) and the GI50 (OVCAR-3) was 17 µM (inactive). For the same compound, the GI50 (LOX IMVI) was 4.11 µM (inactive), the GI50 (SF-268) was 13.4 µM (inactive) and the GI50 (T47D) was 13.1 µM (inactive). For the same compound, the GI50 (HCT-116) was 7.38 µM (inactive), the GI50 (RPMI-8226) was 12.7 µM (inactive) and the GI50 (RXF 393) was 16.2 µM (inactive). The GI50 (MDA-N) was 3.32 µM (inactive), the GI50 (SK-MEL-28) was 11.2 µM (inactive) and the GI50 (CCRF-CEM) was 3.2 µM (inactive). The GI50 (Hs-578T) was 8.61 µM (inactive), the GI50 (UACC-62) was 9.86 µM (inactive) and the GI50 (CAKI-1) was 6.75 µM (inactive). For the same compound, the GI50 (SK-OV-3) was 16.7 µM (inactive), the GI50 (DU-145) was 13.2 µM (inactive) and the GI50 (OVCAR-4) was 19.8 µM (inactive). The GI50 (786-0) was 5.14 µM (inactive), the GI50 (HT-29) was 2.28 µM (inactive) and the GI50 (SNB-19) was 11.9 µM (inactive). The GI50 (KM12) was 10.4 µM (inactive), the GI50 (NCI-H226) was 3.3 µM (inactive) and the GI50 (BT-549) was 10 µM (inactive). For the same compound, the GI50 (MDA-MB-231) was 11.7 µM (inactive), the GI50 (Malme-3M) was 11.2 µM (inactive) and the GI50 (UO-31) was 11.1 µM (inactive). The GI50 (U-251) was 10.7 µM (inactive), the GI50 (EKVX) was 16.2 µM (inactive) and the GI50 (HOP-92) was 8.41 µM (inactive). The GI50 (HCC 2998) was 9.27 µM (inactive), the GI50 (NCI-H23) was 13.4 µM (inactive) and the GI50 (ACHN) was 11.4 µM (inactive). The GI50 (PC-3) was 10.8 µM (inactive), the GI50 (SW-620) was 5.65 µM (inactive) and the GI50 (A549) was 12.2 µM (inactive). For the same compound, the GI50 (SN12C) was 15.3 µM (inactive), the GI50 (NCI-H460) was 5.26 µM (inactive) and the GI50 (SK-MEL-5) was 16.6 µM (inactive). The GI50 (K562) was 5.26 µM (inactive), the GI50 (IGROV-1) was 11.9 µM (inactive) and the GI50 (HCT-15) was 5 µM. The GI50 (NCI-H522) was 2.24 µM (inactive), the GI50 (TK-10) was 12.4 µM (inactive) and the GI50 (OVCAR-8) was 11.2 µM (inactive). The GI50 (SF-539) was 7.35 µM (inactive), the GI50 (UACC-257) was 5.57 µM (inactive) and the GI50 (COLO 205) was 8.17 µM (inactive).
With C=C1C(NC)CCC23CC24CCC2(C)C(C(C)=O)C(O)CC2(C)C4CCC13 (stereo not given) the GI50 (M14) was > 100 µM (inactive), the GI50 (SNB-75) was 49.4 µM (inactive) and the GI50 (OVCAR-5) was > 100 µM (inactive). For the same compound, the GI50 (MDA-MB-435) was > 100 µM (inactive), the GI50 (SF-295) was 28.4 µM (inactive) and the GI50 (MOLT-4) was > 100 µM (inactive). For the same compound, the GI50 (SK-MEL-2) was > 100 µM (inactive), the GI50 (A498) was > 100 µM (inactive) and the GI50 (MCF7) was 70.5 µM (inactive). The GI50 (NCI/ADR-RES) was > 100 µM (inactive), the GI50 (OVCAR-3) was > 100 µM (inactive) and the GI50 (LOX IMVI) was 63.7 µM (inactive). The GI50 (SF-268) was > 100 µM (inactive), the GI50 (T47D) was > 100 µM (inactive) and the GI50 (HCT-116) was 70.3 µM (inactive). The GI50 (RPMI-8226) was 45 µM (inactive), the GI50 (MDA-N) was 63.7 µM (inactive) and the GI50 (SK-MEL-28) was > 100 µM (inactive). For the same compound, the GI50 (CCRF-CEM) was 54.8 µM (inactive), the GI50 (Hs-578T) was > 100 µM (inactive) and the GI50 (UACC-62) was > 100 µM (inactive). The GI50 (CAKI-1) was > 100 µM (inactive), the GI50 (SK-OV-3) was 59.7 µM (inactive) and the GI50 (DU-145) was > 100 µM (inactive). For the same compound, the GI50 (OVCAR-4) was > 100 µM (inactive), the GI50 (786-0) was 80.5 µM (inactive) and the GI50 (HT-29) was 21.9 µM (inactive). The GI50 (SNB-19) was > 100 µM (inactive), the GI50 (KM12) was 56.1 µM (inactive) and the GI50 (NCI-H226) was > 100 µM (inactive). For the same compound, the GI50 (BT-549) was 64.3 µM (inactive), the GI50 (MDA-MB-231) was > 100 µM (inactive) and the GI50 (Malme-3M) was > 100 µM (inactive). The GI50 (UO-31) was > 100 µM (inactive), the GI50 (U-251) was > 100 µM (inactive) and the GI50 (EKVX) was > 100 µM (inactive). The GI50 (HOP-92) was > 100 µM (inactive), the GI50 (HCC 2998) was > 100 µM (inactive) and the GI50 (NCI-H23) was > 100 µM (inactive). For the same compound, the GI50 (ACHN) was > 100 µM (inactive), the GI50 (PC-3) was 78 µM (inactive) and the GI50 (SW-620) was > 100 µM (inactive). The GI50 (A549) was > 100 µM (inactive), the GI50 (SN12C) was 20.4 µM (inactive) and the GI50 (NCI-H460) was > 100 µM (inactive). The GI50 (SK-MEL-5) was > 100 µM (inactive), the GI50 (K562) was 71.3 µM (inactive) and the GI50 (IGROV-1) was > 100 µM (inactive). The GI50 (HCT-15) was > 100 µM, the GI50 (NCI-H522) was 84.9 µM (inactive) and the GI50 (TK-10) was > 100 µM (inactive). The GI50 (OVCAR-8) was > 100 µM (inactive), the GI50 (SF-539) was 59 µM (inactive) and the GI50 (HL-60) was 62.7 µM (inactive). The GI50 (UACC-257) was > 100 µM (inactive) and the GI50 (COLO 205) was > 100 µM (inactive).
In the case of N#Cc1c(-c2ccccc2)c(C#N)c(=S)n(C2OC(CO)C(O)C(O)C2O)c1O (stereo not given), the GI50 (M14) is reported as > 100 µM (inactive), the GI50 (HOP-62) is reported as > 100 µM (inactive) and the GI50 (SNB-75) is reported as > 100 µM (inactive). The GI50 (OVCAR-5) was > 100 µM (inactive), the GI50 (MDA-MB-435) was > 100 µM (inactive) and the GI50 (SR) was > 100 µM (inactive). The GI50 (SF-295) was > 100 µM (inactive), the GI50 (MOLT-4) was > 100 µM (inactive) and the GI50 (SK-MEL-2) was > 100 µM (inactive). For the same compound, the GI50 (A498) was > 100 µM (inactive), the GI50 (MCF7) was > 100 µM (inactive) and the GI50 (NCI/ADR-RES) was > 100 µM (inactive). The GI50 (OVCAR-3) was > 100 µM (inactive), the GI50 (LOX IMVI) was > 100 µM (inactive) and the GI50 (SF-268) was > 100 µM (inactive). For the same compound, the GI50 (T47D) was > 100 µM (inactive), the GI50 (RPMI-8226) was > 100 µM (inactive) and the GI50 (RXF 393) was > 100 µM (inactive). For the same compound, the GI50 (MDA-N) was > 100 µM (inactive), the GI50 (SK-MEL-28) was > 100 µM (inactive) and the GI50 (CCRF-CEM) was > 100 µM (inactive). The GI50 (Hs-578T) was > 100 µM (inactive), the GI50 (UACC-62) was > 100 µM (inactive) and the GI50 (CAKI-1) was > 100 µM (inactive). For the same compound, the GI50 (SK-OV-3) was > 100 µM (inactive), the GI50 (DU-145) was > 100 µM (inactive) and the GI50 (786-0) was > 100 µM (inactive). The GI50 (HT-29) was > 100 µM (inactive), the GI50 (SNB-19) was > 100 µM (inactive) and the GI50 (KM12) was > 100 µM (inactive). The GI50 (NCI-H226) was > 100 µM (inactive), the GI50 (BT-549) was > 100 µM (inactive) and the GI50 (MDA-MB-231) was > 100 µM (inactive). For the same compound, the GI50 (Malme-3M) was > 100 µM (inactive), the GI50 (UO-31) was > 100 µM (inactive) and the GI50 (NCI-H23) was > 100 µM (inactive). For the same compound, the GI50 (ACHN) was > 100 µM (inactive), the GI50 (PC-3) was > 100 µM (inactive) and the GI50 (SW-620) was > 100 µM (inactive). The GI50 (A549) was > 100 µM (inactive), the GI50 (SN12C) was > 100 µM (inactive) and the GI50 (NCI-H460) was > 100 µM (inactive). The GI50 (SK-MEL-5) was > 100 µM (inactive), the GI50 (K562) was > 100 µM (inactive) and the GI50 (IGROV-1) was > 100 µM (inactive). For the same compound, the GI50 (HCT-15) was > 100 µM, the GI50 (NCI-H522) was > 100 µM (inactive) and the GI50 (TK-10) was > 100 µM (inactive). For the same compound, the GI50 (OVCAR-8) was > 100 µM (inactive), the GI50 (SF-539) was > 100 µM (inactive) and the GI50 (HL-60) was > 100 µM (inactive). For the same compound, the GI50 (UACC-257) was > 100 µM (inactive).
